Assay results taken from EPA's ToxValDB 9.5 (doi:10.2903/j.efsa.2006.59r).
In brackets after ≈: the same amount, converted by molar mass.

Experiments:
Daphnia magna = conditions: chronic/long-term; duration: 21 days
Orius insidiosus = conditions: acute, duration: 7 days
Tagia sp. = conditions: mortality
Apis mellifera = conditions: acute, mortality
Rattus norvegicus = conditions: oral; for NOAEL: diet, neurology

SMILES: COP(=S)(OC)Oc1ccc([N+](=O)[O-])c(C)c1 [Fenitrothion]
- NOEC (Daphnia magna): 0.087 µg/L
- LEL (Orius insidiosus; mortality): 715 g/ha
- LEL (Orius insidiosus; reproduction): 715 g/ha
- LD50 (Bird; acute, oral, unspecified, mortality): 2.3 mg/kg-day
- NOEC (Bird; reproductive): 2.34 mg/kg
- LC50 (Bird; short-term, oral, feed, mortality): 23 mg/kg
- LC50 (Tagia sp.; acute): 231 mg/kg
- NOEC (Tagia sp.; chronic/long-term): 2.5 mg/kg
- LD50 (Apis mellifera; dermal): 0.16 µg/piece
- LD50 (Apis mellifera; oral, unspecified): 0.2 µg/piece
- LD50 (Rattus norvegicus; acute, mortality): 330 mg/kg-day
- NOAEL (Rattus norvegicus; chronic, duration: 2 years): 0.5 mg/kg-day
- NOAEL (Rattus norvegicus; subchronic, duration: 90 days): 1.32 mg/kg-day
- LC50 (Oncorhynchus mykiss; acute, duration: 96 hours, mortality): 1.3 µg/mL (≈ 4.69 µM)
- NOEC (Oncorhynchus mykiss; chronic/long-term, duration: 96 days): 0.088 mg/L
